From patent publication US5125099A, “Obtaining heteropolysaccharide-producing microorganism and the microorganism agrobacterium radiobacter NCIB 40018” (Shell Internationale Research Maatschappij B.V., priority 1988, dated 1992)
“Also recorded” adds a separate entry of the source. Read-outs that look alike come from different tables or passages of the source.

How the values were obtained:
GBP1 [1] = assay: Effect of unlabelled glucose analogues on binding of [14C]glucose to GBP1, equilibrium dialysis; parameters: species or system Agrobacterium radiobacter; conditions: for [14C]glucose bound GBP1: 0.5 nmol pure protein, 3 nmol [14C]glucose plus 120 nmol unlabelled analogue, 30 h, 4° C.; for Effect on binding of glucose to GBP1 (in words): competition with [14C]glucose in vitro
Description: (§1) The capacity of glucose analogues to reduce the extent of binding of D-[U-^14 C]glucose to pure proteins was determined by modifying the assay procedure as follows. One chamber of each cell contained 0.5 nmol pure protein in 0.3 ml bis-Tris, pH 6.8, and the other chamber was loaded with 0.3 ml of buffer containing 3 nmol D-[U-^14 C]glucose [85 mCi mmol^-1 (3.2 GBq mmol )] plus 120 nmol of an unlabelled glucose analogue. The quantity of [^14 C]glucose that bound to the proteins in the presence and absence of unlabelled glucose analogues was determined after 30 h incubation.

GBP2 [2] = assay: Effect of unlabelled glucose analogues on binding of [14C]glucose to GBP2, equilibrium dialysis; parameters: species or system Agrobacterium radiobacter; conditions: for [14C]glucose bound GBP2: 0.5 nmol pure protein, 3 nmol [14C]glucose plus 120 nmol unlabelled analogue, 30 h, 4° C.; for Effect on binding of glucose to GBP2 (in words): competition with [14C]glucose in vitro
Description: as §1

[3] = system: A. radiobacter strain AR9; assay: Effect of glucose analogues on [14C]glucose uptake by strain AR9 grown under glucose limitation; assay type: cell-based, Agrobacterium radiobacter; conditions: for activity at 10000 µM: Agrobacterium radiobacter, AR9, pH 7, unlabelled sugars 10 mM, [14C]glucose 250M, glucose-limited culture D = 0.045 h^-1, control rate 63 nmol min^-1 (mg dry wt)^-1
Description: (§2) Measurement of glucose uptake. […] Assays were carried out in an open-topped Rank oxygen electrode vessel containing 1 ml 20 mM HEPES/KOH buffer, pH 7.0, and 1 mg dry wt cells. The contents of the vessel were maintained at 30° C. and mixed continuously using a magnetic stirrer. […] Samples (50 ul) of the reaction mixture were withdrawn at 15 s intervals and the cells were collected on nitrocellulose filters of 0.45 uM pore size (2.5 cm dia.; Sartorius) by means of a manifold connected to a vacuum line. The filters were washed immediately using 3 ml 20 mM HEPES, pH 7.0, dried under an infra-red lamp and then immersed in 3 ml of Fisofluor 3 scintillant (Fisons Ltd.).

[4] = system: A. radiobacter strain AR18; assay: Effect of glucose analogues on [14C]glucose uptake by strain AR18 grown under glucose limitation; assay type: cell-based, Agrobacterium radiobacter; conditions: for activity at 10000 µM: Agrobacterium radiobacter, AR18, pH 7, unlabelled sugars 10 mM, [14C]glucose 250M, glucose-limited culture D = 0.045 h^-1, control rate 72 nmol min^-1 (mg dry wt)^-1
Description: as §2

[5] = system: whole cells of A. radiobacter; assay: [14C]glucose uptake by whole cells grown under glucose limitation; assay type: cell-based, Agrobacterium radiobacter NCIB 11883; conditions: for Glucose uptake rate after pre-incubation with respiratory substrate (in words): 10 mM, pre-incubated before addition of [14C]glucose; for Effect on rate of [14C]glucose uptake by whole cells (in words): unlabelled analogue at 40:1 molar excess, glucose-limited cells
Description: Organism and growth conditions. Agrobacterium radiobacter NCIB 11883 was grown at 30° C. in continuous culture (D=0.045 h^-1) under glucose limitation using a chemically defined medium (Linton et al., 1987) supplemented with glucose (4 gl^-1), ammonium sulfate (3 gl^-1) and nitrilotriacetic acid (0.142 gl^-1). The organism was grown in an LH Series 500 chemostat of 2 l working volume at a steady-state biomass density of 2.1 g dry wt 1^-1.
Measurement of glucose uptake. Rates of glucose uptake were determined by measuring the incorporation of D-[U-^14 C]glucose into whole cells over a period of 60 s. Assays were carried out in an open-topped Rank oxygen electrode vessel containing 1 ml 20 mM HEPES/KOH buffer, pH 7.0, and 1 mg dry wt cells. The contents of the vessel were maintained at 30° C. and mixed continuously using a magnetic stirrer. Assays were started by adding D-[U-^14 C]glucose [2 mCi mmol^-1 (74 MBq mmol^-1; 0.5 uCi (18.5 KBl)] to give a final concentration of 250 uM. Samples (50 ul) of the reaction mixture were withdrawn at 15 s intervals and the cells were collected on nitrocellulose filters of 0.45 uM pore size (2.5 cm dia.; Sartorius) by means of a manifold connected to a vacuum line. The filters were washed immediately using 3 ml 20 mM HEPES, pH 7.0, dried under an infra-red lamp and then immersed in 3 ml of Fisofluor 3 scintillant (Fisons Ltd.). The extent of incorporation of [^14 C]glucose into the cells was determined by counting the radioactivity on the filters using a Hewlett Packard Tri-Carb liquid scintillation counter (80-85% efficiency).
In order to measure glucose uptake rates at low concentrations of substrate (1-5 uM) the cell density was reduced to 0.01 mg ml^-1, the specific activity of the [^14 C]glucose was increased to 84 mCi mmol^-1 (3.2 Gbq mmol^-1) and the rate of incorporation of ^14 C-label into cells was measured over a period of 35 s.
The substrate specificity of the transport system was investigated by determining the extent to which unlabelled glucose analogues (10 mM) reduced the rate of uptake of [^14 C]glucose (250 uM). Cell suspensions were incubated with analogues for 5 s prior to addition of [^14 C]glucose.

GBP2 [6] = assay: Binding of [14C]glucose to pure GBP2, equilibrium dialysis, Scatchard analysis; parameters: species or system Agrobacterium radiobacter
Description: (§3) Determination of binding constants using equilibrium dialysis. This was carried out at 4° C. using an eight-cell rotating module (Hoefer Scientific Instruments, San Fransisco, Calif., U.S.A.). Each cell was divided into two chambers of 0.5 ml volume using a dialysis membrane (Mr cut-off=6-8000). Pure protein (0.5 nmol) was added to one chamber of each cell in 0.3 ml bis-Tris, pH 6.8. Each of the opposing chambers was loaded with 0.3 ml bis-Tris (0.3 ml) containing D-[U-^14 C]glucose [270 mCi mmol^-1 (10 GBq mmol^-1)], the concentration of which was varied over an appropriate range. The module was rotated at 10 rev min^-1 for 30 h (by which time equilibrium had been attained) and samples (50 ul) were taken in triplicate from each chamber and counted in 3 ml Fisofluor 2 (Fisons Ltd.). The data were analyzed according to the method of Scatchard (1949).

[7] = system: third protein (Mr 30500), BP3; assay: Binding of [14C]glucose to the third periplasmic protein (BP3), equilibrium dialysis; parameters: species or system Agrobacterium radiobacter
Description: as §3

GBP1 [8] = assay: Binding of [14C]glucose to pure GBP1, equilibrium dialysis, Scatchard analysis; parameters: species or system Agrobacterium radiobacter
Description: as §3

[9] = system: whole cells of A. radiobacter; assay: Capacity of whole cells to accumulate [14C]glucose; assay type: cell-based, Agrobacterium radiobacter NCIB 11883
Description: The capacity of A. radiobacter to accumulate glucose was determined by incubating cell suspensions (1 mg dry wt ml^-1) with D-[U-^14 C]glucose [84 mCi mmol^-1 (3.2 Gbq mmol^-1); 20M initial concentration). Samples (100 ul) of the suspension were withdrawn 10s after adding the glucose and the cells were collected on nitrocellulose filters (0.45 um pore size) using vacuum filtration. The filters were washed immediately using 3 ml buffer and immersed in 20 ml boiling water. Aqueous extracts prepared from four filters were pooled, lyophilized and the residue dissolved in 2 ml water. The glucose content of the cells was determined using liquid scintillation counting following separation of [^14 C]glucose from other labelled metabolites present in the extracts using paper chromatography. Samples of the filtrate plus washings were also counted in order to determine the extracellular concentration of glucose at the time of sampling.

[10] = glucose-limited culture, unlabelled sugar 10 mM

Compound	[14C]glucose bound GBP1 (GBP1 [1])	Effect on binding of glucose to GBP1 (in words) (GBP1 [1])	[14C]glucose bound GBP2 (GBP2 [2])	Effect on binding of glucose to GBP2 (in words) (GBP2 [2])	activity at 10000 µM [3]	activity at 10000 µM [4]	other results
C[C@@H](O)[C@@H](O)[C@H](O)[C@@H](O)C=O [6-deoxy-D-glucose]	51 % control value	variably decreased; also recorded: significantly reduced	0 % control value	variably decreased; also recorded: significantly reduced	11%	27%	
OCC(O)CO [glycerol]							Glucose uptake rate after pre-incubation with respiratory substrate (in words) [5]: did not increase
CO[C@H]1O[C@H](CO)[C@@H](O)[C@H](O)[C@H]1O [alpha-1-O-methyl-D-glucose]	99 % control value	did not affect	104 % control value	did not affect	99%	111%	Effect on rate of [14C]glucose uptake by whole cells (in words) [5]: none of these unlabelled analogues appreciably reduced; Effect on rate of [14C]glucose uptake by whole cells (in words) ([5]; listed as Alpha-1-O-methyl-D-glucose): failed to reduce significantly
O=C[C@H](O)[C@@H](O)[C@H](O)CO [D-xylose]	72 % control value	significantly reduced	2 % control value	significantly reduced		64%	
C[C@@H](O)[C@H](O)[C@H](O)[C@@H](O)C=O [D-fucose]	31 % control value	only effective with GBP1	99 % control value	only effective with GBP1	68%	18%	
N#CC(C#N)=NNc1ccc(OC(F)(F)F)cc1 [FCCP, carbonyl cyanide p-trifluoromethoxyphenylhydrazone]							Inhibition of glucose transport ([5]; at 20 M, added 10 s before glucose): approximately 95%
O=CC[C@@H](O)[C@H](O)[C@H](O)CO [2-deoxy-D-glucose]	96 % control value	did not affect	98 % control value	did not affect	71%	93%	Effect on binding of glucose to GBP1 (in words) (GBP1 [1]; listed as 2-Deoxy-D-glucose): had no effect; Effect on binding of glucose to GBP2 (in words) (GBP2 [2]; listed as 2-Deoxy-D-glucose): had no effect; Effect on rate of [14C]glucose uptake by whole cells (in words) [5]: none of these unlabelled analogues appreciably reduced; also recorded: failed to reduce significantly; Effect on rate of glucose uptake by strain AR9 (in words) [3, 10]: reduced the rate of glucose uptake to a relatively small extent; Effect on rate of glucose uptake by strain AR18 (in words) [4, 10]: reduced the rate of glucose uptake to a relatively small extent
O=C[C@H](O)[C@@H](O)[C@H](O)[C@H](O)CO [D-glucose]	4 % control value		4 % control value		4%	4%	Kd (GBP2 [6]; as printed in the summary, read-out: KD of D-glucose for GBP2 (summary)): 0.07 µM; Kd (GBP2 [6]; equilibrium dialysis, 4° C., pH 6.8, read-out: KD of glucose for GBP2): 0.07 µM; Binding of D-glucose to the third protein (Mr 30500) (in words) [7]: no binding ability; Kd (GBP1 [8]; as printed in the summary, read-out: KD of D-glucose for GBP1 (summary)): 0.23 µM; Kd (GBP1 [8]; equilibrium dialysis, 4° C., pH 6.8, read-out: KD of glucose for GBP1): 0.23 µM; Accumulation ratio ([glucose]in/[glucose]out) [9]: > 2000; Accumulation ratio ([glucose]in/[glucose]out) ([9]; 10 s incubation, assuming an intracellular volume of 1-3 ul mg dry wt^-1): 2000-6000; Km ([5]; [14C]glucose varied over the range 1 M-1 mM, whole cells): < 1 µM
OC1O[C@H](CCl)[C@@H](O)[C@H](O)[C@H]1O (stereo partly drawn) [6-chloro-6-deoxy-D-glucose]	0 % control value	variably decreased; also recorded: significantly reduced	60 % control value	variably decreased; also recorded: significantly reduced	33%	8%	
CO[C@H]1[C@H](O)[C@@H](CO)OC(O)[C@@H]1O (stereo partly drawn) [3-O-methyl-D-glucose]	100 % control value	did not affect	103 % control value	did not affect	99%	111%	Effect on rate of [14C]glucose uptake by whole cells (in words) [5]: none of these unlabelled analogues appreciably reduced; also recorded: failed to reduce significantly
CCO [ethanol]							Glucose uptake rate after pre-incubation with respiratory substrate (in words) [5]: did not increase
